{
  "source": "patent US7390507B2",
  "about": "“Compositions and methods for the treatment of radiation burns and other traumatic skin conditions” (priority 2004, dated 2008)",
  "origin": "cited, not measured here",
  "key": {"[1]": {"settings": "in vivo"}},
  "data": [
    {"molecule": "NCCCNCCSP(=O)(O)O", "note": "[amifostine]", "values": [
      {"measurement": "dermato-cytoprotective effect", "setting": "retrospective analysis", "value": "significant dermato-cytoprotective effect"}
    ]},
    {"molecule": "O=C(O)CCCCC1CCSS1", "note": "(stereo not drawn) [Alpha-Lipoic Acid]", "values": [
      {"measurement": "effect on skin ageing / wrinkles", "setting": "[1]", "value": "some effect"}
    ]},
    {"molecule": "O=C1O[C@H]([C@@H](O)CO)C(O)=C1O", "note": "[topical Vitamin C, Vitamin C]", "values": [
      {"measurement": "improvement in the results of irradiated breast tissue", "setting": "human, in vivo", "value": "without improvement"}
    ]}
  ]
}
